Experiments:
Assay in all cases: Kinase profiling
Format in all cases: biochemical
[1] = target: T1, AKT2 (Homo sapiens, UniProt P31751)
T1 construct: purchased ProQinase (Freiburg, Germany)
Procedure: (§1) The analysis was performed by ProQinase (Freiburg, Germany).

[2] = target: T2, EPHB1 (Homo sapiens, UniProt P54762)
T2 construct: purchased ProQinase (Freiburg, Germany)
T2 sequence (P54762 18-984): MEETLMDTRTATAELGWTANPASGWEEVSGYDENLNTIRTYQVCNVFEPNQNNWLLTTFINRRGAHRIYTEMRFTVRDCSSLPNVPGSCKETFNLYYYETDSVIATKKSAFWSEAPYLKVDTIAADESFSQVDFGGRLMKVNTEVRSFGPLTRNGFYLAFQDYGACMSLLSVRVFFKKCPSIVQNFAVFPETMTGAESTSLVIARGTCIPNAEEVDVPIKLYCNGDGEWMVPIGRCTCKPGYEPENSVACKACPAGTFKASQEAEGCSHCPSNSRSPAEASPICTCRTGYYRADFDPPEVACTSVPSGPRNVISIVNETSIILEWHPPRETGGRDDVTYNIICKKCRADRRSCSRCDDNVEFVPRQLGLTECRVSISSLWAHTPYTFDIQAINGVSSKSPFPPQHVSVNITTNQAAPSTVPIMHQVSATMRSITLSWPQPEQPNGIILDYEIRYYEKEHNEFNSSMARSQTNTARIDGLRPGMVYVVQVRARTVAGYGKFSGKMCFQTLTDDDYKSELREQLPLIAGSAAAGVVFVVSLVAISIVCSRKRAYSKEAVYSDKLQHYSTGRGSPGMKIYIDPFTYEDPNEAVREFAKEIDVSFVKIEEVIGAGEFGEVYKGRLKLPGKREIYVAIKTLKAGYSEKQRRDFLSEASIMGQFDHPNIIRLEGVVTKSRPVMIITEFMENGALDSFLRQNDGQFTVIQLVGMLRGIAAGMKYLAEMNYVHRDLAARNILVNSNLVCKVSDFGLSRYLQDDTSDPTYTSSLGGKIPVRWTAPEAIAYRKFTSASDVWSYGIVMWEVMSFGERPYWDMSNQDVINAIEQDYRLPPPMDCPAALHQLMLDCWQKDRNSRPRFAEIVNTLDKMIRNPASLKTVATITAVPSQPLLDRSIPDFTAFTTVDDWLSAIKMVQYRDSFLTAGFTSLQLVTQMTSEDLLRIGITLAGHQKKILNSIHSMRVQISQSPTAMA
Procedure: as §1

[3] = target: T3, IKKbeta (Homo sapiens, UniProt O14920)
T3 construct: purchased ProQinase (Freiburg, Germany)
T3 sequence (O14920 1-756): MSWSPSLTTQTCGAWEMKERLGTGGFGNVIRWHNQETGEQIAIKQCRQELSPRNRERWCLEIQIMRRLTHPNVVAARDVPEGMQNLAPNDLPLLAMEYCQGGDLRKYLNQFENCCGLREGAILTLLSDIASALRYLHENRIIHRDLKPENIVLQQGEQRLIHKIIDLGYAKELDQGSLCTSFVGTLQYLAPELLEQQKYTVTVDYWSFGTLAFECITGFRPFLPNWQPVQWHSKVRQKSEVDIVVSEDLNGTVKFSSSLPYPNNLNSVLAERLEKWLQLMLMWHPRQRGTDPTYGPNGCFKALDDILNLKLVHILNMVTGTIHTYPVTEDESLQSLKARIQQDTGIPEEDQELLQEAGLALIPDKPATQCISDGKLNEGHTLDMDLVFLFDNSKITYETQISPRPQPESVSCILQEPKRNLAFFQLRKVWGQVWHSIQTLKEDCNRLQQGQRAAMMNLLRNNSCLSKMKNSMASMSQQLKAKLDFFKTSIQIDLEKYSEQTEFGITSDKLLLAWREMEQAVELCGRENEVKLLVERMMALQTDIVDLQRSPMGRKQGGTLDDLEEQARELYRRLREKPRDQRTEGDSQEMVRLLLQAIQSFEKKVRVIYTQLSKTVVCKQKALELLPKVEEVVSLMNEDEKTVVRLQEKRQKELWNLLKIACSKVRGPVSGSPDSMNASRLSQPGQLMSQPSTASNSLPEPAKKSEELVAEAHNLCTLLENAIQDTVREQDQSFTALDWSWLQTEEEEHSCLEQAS
Procedure: as §1

[4] = target: T4, MYLK (Homo sapiens, UniProt Q15746)
T4 construct: purchased ProQinase (Freiburg, Germany)
T4 sequence (Q15746 whole entry): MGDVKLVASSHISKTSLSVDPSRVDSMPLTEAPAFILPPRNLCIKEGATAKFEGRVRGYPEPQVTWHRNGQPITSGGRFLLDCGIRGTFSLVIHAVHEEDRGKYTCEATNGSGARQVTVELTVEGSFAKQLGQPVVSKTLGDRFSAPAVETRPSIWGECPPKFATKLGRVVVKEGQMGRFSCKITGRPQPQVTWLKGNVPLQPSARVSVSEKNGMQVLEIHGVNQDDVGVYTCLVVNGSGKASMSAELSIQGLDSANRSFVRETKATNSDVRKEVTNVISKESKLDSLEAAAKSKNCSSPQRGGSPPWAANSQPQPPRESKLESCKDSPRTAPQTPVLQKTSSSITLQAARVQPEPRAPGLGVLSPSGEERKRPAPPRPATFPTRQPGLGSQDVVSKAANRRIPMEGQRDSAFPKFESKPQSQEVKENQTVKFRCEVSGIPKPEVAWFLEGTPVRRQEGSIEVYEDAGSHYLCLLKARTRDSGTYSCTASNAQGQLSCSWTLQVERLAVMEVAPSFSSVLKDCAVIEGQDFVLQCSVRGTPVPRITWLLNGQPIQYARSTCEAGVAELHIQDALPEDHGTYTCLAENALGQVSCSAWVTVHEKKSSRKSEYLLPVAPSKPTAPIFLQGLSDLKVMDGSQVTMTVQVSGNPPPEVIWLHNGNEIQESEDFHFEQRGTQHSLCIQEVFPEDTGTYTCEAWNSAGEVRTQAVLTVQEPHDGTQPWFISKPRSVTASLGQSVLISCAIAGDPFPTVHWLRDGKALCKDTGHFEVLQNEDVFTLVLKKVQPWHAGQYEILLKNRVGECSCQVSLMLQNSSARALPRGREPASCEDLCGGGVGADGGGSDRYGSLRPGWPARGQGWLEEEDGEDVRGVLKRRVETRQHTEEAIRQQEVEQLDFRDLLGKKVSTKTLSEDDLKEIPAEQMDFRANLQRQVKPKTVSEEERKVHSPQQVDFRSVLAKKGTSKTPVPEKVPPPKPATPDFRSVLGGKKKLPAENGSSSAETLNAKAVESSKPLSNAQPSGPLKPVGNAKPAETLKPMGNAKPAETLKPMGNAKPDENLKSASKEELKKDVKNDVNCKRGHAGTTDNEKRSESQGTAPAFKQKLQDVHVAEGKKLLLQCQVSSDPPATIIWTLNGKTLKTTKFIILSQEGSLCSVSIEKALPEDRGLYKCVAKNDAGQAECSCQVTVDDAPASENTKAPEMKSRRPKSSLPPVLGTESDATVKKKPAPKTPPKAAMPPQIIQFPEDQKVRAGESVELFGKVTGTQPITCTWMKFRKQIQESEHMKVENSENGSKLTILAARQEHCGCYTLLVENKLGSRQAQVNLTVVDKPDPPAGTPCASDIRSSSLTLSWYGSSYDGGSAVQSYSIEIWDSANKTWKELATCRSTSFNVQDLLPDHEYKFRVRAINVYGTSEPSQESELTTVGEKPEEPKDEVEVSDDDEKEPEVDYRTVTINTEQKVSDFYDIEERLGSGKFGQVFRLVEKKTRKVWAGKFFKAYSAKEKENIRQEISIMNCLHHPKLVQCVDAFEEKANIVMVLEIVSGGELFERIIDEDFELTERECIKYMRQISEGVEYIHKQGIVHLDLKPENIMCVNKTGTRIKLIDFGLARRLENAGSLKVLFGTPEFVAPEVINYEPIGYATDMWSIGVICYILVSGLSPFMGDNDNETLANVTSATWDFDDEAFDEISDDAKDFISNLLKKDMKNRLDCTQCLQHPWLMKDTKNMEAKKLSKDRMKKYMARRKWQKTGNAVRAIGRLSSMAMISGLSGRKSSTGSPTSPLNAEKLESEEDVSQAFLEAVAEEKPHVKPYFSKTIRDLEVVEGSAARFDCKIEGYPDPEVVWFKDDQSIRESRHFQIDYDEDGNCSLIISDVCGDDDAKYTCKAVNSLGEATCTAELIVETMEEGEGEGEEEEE
Procedure: as §1

[5] = target: T5, PAK2 (Homo sapiens, UniProt Q13177)
T5 construct: purchased ProQinase (Freiburg, Germany)
T5 sequence (Q13177 whole entry): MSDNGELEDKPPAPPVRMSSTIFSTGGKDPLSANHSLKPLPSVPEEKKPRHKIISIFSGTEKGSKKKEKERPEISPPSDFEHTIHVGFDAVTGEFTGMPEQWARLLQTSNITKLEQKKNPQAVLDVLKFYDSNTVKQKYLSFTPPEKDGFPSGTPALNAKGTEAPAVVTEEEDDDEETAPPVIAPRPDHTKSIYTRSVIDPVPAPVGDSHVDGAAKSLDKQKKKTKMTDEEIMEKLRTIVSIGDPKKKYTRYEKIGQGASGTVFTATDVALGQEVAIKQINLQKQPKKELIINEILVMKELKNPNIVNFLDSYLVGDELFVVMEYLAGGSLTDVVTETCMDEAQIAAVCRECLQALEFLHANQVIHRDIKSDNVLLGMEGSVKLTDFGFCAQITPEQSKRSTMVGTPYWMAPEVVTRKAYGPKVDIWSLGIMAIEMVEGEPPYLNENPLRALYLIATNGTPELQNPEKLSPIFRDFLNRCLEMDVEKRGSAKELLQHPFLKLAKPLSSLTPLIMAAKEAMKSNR
Procedure: as §1

[6] = target: T6, PDGFRbeta (Homo sapiens, UniProt P09619)
T6 construct: purchased ProQinase (Freiburg, Germany)
T6 sequence (P09619 33-1106): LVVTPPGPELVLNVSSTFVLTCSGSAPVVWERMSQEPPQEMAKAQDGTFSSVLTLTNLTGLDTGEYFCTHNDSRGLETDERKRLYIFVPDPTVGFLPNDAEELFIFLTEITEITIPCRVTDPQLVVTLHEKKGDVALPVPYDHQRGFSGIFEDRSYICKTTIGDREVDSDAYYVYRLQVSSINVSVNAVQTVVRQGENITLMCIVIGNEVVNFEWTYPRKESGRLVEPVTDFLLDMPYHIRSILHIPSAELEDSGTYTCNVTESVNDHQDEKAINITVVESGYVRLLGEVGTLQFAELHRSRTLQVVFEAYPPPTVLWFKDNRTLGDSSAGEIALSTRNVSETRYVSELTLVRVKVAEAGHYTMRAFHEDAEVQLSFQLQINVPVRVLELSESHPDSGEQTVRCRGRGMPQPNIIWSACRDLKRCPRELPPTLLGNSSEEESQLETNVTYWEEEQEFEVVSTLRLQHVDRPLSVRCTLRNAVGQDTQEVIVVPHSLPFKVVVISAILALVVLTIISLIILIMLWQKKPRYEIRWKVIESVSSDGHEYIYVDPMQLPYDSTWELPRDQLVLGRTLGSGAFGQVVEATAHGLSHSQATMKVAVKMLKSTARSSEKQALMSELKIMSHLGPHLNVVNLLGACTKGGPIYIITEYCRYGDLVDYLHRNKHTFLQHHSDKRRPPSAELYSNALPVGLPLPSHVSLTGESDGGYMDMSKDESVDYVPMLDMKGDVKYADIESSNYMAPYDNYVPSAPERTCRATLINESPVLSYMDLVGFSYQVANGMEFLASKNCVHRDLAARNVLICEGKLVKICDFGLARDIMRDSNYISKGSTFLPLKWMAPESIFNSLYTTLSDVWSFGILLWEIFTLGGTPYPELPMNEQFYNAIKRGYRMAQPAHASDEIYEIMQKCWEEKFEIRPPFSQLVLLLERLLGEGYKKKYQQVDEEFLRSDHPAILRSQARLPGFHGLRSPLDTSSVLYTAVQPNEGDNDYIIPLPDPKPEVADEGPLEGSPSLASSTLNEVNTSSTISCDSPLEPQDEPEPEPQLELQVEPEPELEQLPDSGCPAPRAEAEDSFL
Procedure: as §1

[7] = target: T7, PRKG1 (Homo sapiens, UniProt Q13976)
T7 construct: purchased ProQinase (Freiburg, Germany)
T7 sequence (Q13976 1-671): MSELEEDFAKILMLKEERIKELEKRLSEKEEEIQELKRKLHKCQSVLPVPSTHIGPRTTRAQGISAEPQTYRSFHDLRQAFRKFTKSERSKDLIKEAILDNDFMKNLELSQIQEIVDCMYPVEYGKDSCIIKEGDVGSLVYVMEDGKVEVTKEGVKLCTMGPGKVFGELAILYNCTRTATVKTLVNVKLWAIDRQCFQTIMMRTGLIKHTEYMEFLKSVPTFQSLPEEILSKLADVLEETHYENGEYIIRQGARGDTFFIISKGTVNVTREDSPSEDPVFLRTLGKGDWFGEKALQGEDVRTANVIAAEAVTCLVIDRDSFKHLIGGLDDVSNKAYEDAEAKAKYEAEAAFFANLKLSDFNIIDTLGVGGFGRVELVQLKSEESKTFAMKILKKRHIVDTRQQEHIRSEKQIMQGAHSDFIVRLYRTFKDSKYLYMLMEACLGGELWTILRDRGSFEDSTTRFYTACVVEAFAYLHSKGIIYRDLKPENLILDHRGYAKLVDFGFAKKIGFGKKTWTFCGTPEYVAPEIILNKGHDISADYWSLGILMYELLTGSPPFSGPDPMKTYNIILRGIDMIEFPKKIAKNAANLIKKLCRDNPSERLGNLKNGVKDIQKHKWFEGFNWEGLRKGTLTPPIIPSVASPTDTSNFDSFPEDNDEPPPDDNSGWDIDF
Procedure: as §1

[8] = target: T8, SIK3 (Homo sapiens, UniProt Q9Y2K2)
T8 construct: purchased ProQinase (Freiburg, Germany)
Procedure: as §1

T1 sequence (P31751 whole entry): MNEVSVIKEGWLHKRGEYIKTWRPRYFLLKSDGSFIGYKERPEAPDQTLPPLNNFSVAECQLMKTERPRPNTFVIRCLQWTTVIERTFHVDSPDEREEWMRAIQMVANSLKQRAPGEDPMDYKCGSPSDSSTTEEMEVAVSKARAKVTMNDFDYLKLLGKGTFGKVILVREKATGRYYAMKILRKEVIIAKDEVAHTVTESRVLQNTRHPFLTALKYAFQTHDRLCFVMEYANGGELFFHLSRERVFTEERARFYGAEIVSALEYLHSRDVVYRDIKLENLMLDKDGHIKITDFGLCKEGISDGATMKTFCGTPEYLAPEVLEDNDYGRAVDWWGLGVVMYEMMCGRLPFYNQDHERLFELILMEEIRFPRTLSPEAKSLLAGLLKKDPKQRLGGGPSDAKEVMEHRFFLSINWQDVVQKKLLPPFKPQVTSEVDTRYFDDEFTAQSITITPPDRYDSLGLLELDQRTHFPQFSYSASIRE

O=C(Cc1ccccc1)Nc1ccc(F)c(Nc2ccc3c(c2)CCCCC3=O)c1 [Compound 100]
Residual activity ([1]; 1.0E-05 M): 82 % of control
Residual activity ([1]; 1.0E-06 M): 92 % of control
Residual activity ([2]; 1.0E-05 M): 103 % of control
Residual activity ([2]; 1.0E-06 M): 113 % of control
Residual activity ([3]; 1.0E-05 M): 99 % of control
Residual activity ([3]; 1.0E-06 M): 110 % of control
Residual activity ([4]; 1.0E-05 M): 78 % of control
Residual activity ([4]; 1.0E-06 M): 92 % of control
Residual activity ([5]; 1.0E-05 M): 68 % of control
Residual activity ([5]; 1.0E-06 M): 101 % of control
Residual activity ([6]; 1.0E-05 M): 99 % of control
Residual activity ([6]; 1.0E-06 M): 100 % of control
Residual activity ([7]; 1.0E-05 M): 96 % of control
Residual activity ([7]; 1.0E-06 M): 120 % of control
Residual activity ([8]; 1.0E-05 M): 87 % of control
Residual activity ([8]; 1.0E-06 M): 95 % of control

O=C(Nc1ccc(F)c(Nc2ccc3c(c2)CCCCC3=O)c1)c1cccc(F)c1 [Compound 109]
Residual activity ([1]; 1.0E-05 M): 92 % of control
Residual activity ([1]; 1.0E-06 M): 92 % of control
Residual activity ([2]; 1.0E-05 M): 95 % of control
Residual activity ([2]; 1.0E-06 M): 113 % of control
Residual activity ([3]; 1.0E-05 M): 79 % of control
Residual activity ([3]; 1.0E-06 M): 84 % of control
Residual activity ([4]; 1.0E-05 M): 64 % of control
Residual activity ([4]; 1.0E-06 M): 81 % of control
Residual activity ([5]; 1.0E-05 M): 69 % of control
Residual activity ([5]; 1.0E-06 M): 91 % of control
Residual activity ([6]; 1.0E-05 M): 99 % of control
Residual activity ([6]; 1.0E-06 M): 98 % of control
Residual activity ([7]; 1.0E-05 M): 90 % of control
Residual activity ([7]; 1.0E-06 M): 113 % of control
Residual activity ([8]; 1.0E-05 M): 99 % of control
Residual activity ([8]; 1.0E-06 M): 96 % of control

Reference: publication PMC9030254, “Target Hopping from Protein Kinases to PXR: Identification of Small-Molecule Protein Kinase Inhibitors as Selective Modulators of Pregnane X Receptor from TüKIC Library” (Cells, 2022)
